In publication PMC3977315 (2010):
One block for each compound: values may come before it.

Tests used:
[1] = test system: poly(dA)•poly(dT) (DNA, polymer) A/T; experiment: fluorescent intercalator displacement; settings: K+ 150 mM; Na+ 10 mM; thiazole orange not displaced; highest concentration 10 mM
[2] = test system: poly(dA)•2poly(dT) (DNA, polymer) A/T; experiment: calorimetric/spectroscopic thermodynamic profile; settings: K+ 150 mM; 10 mM sodium cacodylate, 0.5 mM EDTA, pH 5.5, 20 °C
[3] = test system: poly(dA)•2poly(dT) (DNA, polymer) A/T; experiment: UV melting; settings: K+ 150 mM, 10 mM sodium cacodylate, pH 6.8, rdb 1.67
[4] = test system: poly(dA)•2poly(dT) (DNA, polymer) A/T; experiment: fluorescent intercalator displacement; settings: thiazole orange displaced

AC50 [1]: > 10 mM
KT(20°C) [2]: (2.4±0.1)×10^5 M^−1
ΔTm3→2 ([3]; 25 μM neomycin, per base): ~ 25 °C
SMILES: NC[C@@H]1O[C@H](O[C@H]2[C@@H](O)[C@H](O[C@@H]3[C@@H](O)[C@H](N)C[C@H](N)[C@H]3O[C@H]3O[C@H](CN)[C@@H](O)[C@H](O)[C@H]3N)O[C@@H]2CO)[C@H](N)[C@@H](O)[C@@H]1O

binding [3]: weak
SMILES: NC[C@H]1O[C@H](O[C@H]2[C@H](O)[C@@H](O)[C@H](N)C[C@@H]2N)[C@H](N)[C@@H](O)[C@@H]1O

binding [4]: weak
SMILES: NC[C@H]1O[C@H](O[C@H]2[C@H](O[C@@H]3O[C@H](CO)[C@@H](O)[C@H]3O)[C@@H](O)[C@H](N)C[C@@H]2N)[C@H](N)[C@@H](O)[C@@H]1O
